Laboratory results reported in paper PMC4438668, “Quantitative High-Throughput Identification of Drugs as Modulators of Human Constitutive Androstane Receptor” (Scientific Reports, 2015).
“Also recorded” adds a separate entry of the source. Like-named read-outs stand apart in the source and are kept apart here.

Legend:
human CAR (hCAR) [1] = biological target: T1, human CAR (hCAR) (Homo sapiens, UniProt Q14994)
T1 sequence (Q14994 1-348 isoform Q14994-2): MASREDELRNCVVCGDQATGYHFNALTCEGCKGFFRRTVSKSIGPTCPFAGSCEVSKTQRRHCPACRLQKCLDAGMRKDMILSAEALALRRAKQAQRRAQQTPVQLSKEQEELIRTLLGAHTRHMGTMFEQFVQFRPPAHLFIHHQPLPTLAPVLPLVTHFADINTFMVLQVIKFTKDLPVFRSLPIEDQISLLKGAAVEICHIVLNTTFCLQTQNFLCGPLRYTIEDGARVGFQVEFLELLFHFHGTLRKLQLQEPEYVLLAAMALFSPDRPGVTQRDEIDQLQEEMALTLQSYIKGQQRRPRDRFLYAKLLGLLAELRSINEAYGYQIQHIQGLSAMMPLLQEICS
Method: (§2) The pEF6/V5-hCAR expression plasmid and the pGL4.17[luc2/Neo]-CYP2B6-2.2kb construct containing both the PBREM and XREM[40], were co-transfected in HepG2 cells using lipofectamine 2000 reagents (Life Technologies) following the manufacturer’s instruction. Dulbecco’s Modified Eagle Medium (DMEM) containing 10% FBS, 100 U/ml penicillin, 100 μg/ml streptomycin, G418 (0.6-1 mg/ml) and blasticidin (10 μg/ml) were used for the selection of colonies containing a mixed population of drug resistant cells. Subsequently, these cells were transferred to collagen-coated 48-well plates and continually cultured in the same media. Single colony containing both plasmids was selected and functionally verified.
(§3) The generated stable cell line, namely HepG2-CYP2B6-hCAR, was used to identify hCAR modulators in a qHTS platform. Assays were run in both agonist and antagonist modes. In brief, HepG2-CYP2B6-hCAR cells were dispensed at 2,500 cells/well in 1,536-well plates (Greiner Bio-One North America, Monroe, NC) using a Multidrop Combi (Thermo Fisher Scientific Inc., Waltham, MA). […] The assays were incubated at 37 °C for 24 h followed by the addition of 4 μl of the ONE-Glo luciferase reagent (Promega, Madision, WI). The assay plates were incubated at room temperature for 20 min and luminescence intensity was quantified using a ViewLux plate reader (PerkinElmer, Shelton, CT).
(§4) Concentration-response titration points for each compound were then fitted to the Hill equation, yielding half-maximal inhibition (IC50) or activation (EC50) and maximal response (efficacy) values. Compounds from the primary qHTS screen were classified into four major curve classes according to quality of curve fit, potency and efficacy. Class 1.1, 1.2, 2.1, and 2.2 curves were high-quality and thus high-confidence concentration-response curves (CRCs). […] All other curve classes (including those curves with single point activity) were deemed inconclusive. […] Follow-up studies were performed using a new aliquot of samples to confirm sample integrity and assay reproducibility.
(§5) All of these compounds were retested in both HepG2-CYP2B6-hCAR and cell viability assays.

human CAR (hCAR) [2] = biological target: T1, human CAR (hCAR); assay: hCAR luciferase reporter qHTS, antagonist mode (HepG2-CYP2B6-hCAR cells, CITCO co-treatment); details: antagonist mode;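 further: stable HepG2 line carrying hCAR plus a CYP2B6 promoter (PBREM/XREM) luciferase reporter, 1536-well format, 24 h compound exposure at 37 °C, then luminescence read with ONE-Glo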
Method: as §2, §3, §4, §5

[3] = Cell viability assay (CellTiter-Glo ATP quantitation); type: cell-based, human; set-up: key to Cytotoxicity (activity call): Inactive: considered inactive if efficacy is less than 30%; details: human, HepG2-CYP2B6-hCAR cells, read-out: Cytotoxicity Potency
Method: (§1) The potential cytotoxicity of the NPC compounds in HepG2-CYP2B6-hCAR cells was measured using a luciferase-coupled ATP quantitation assay (CellTiter-Glo viability assay, Promega). The change of intracellular ATP content indicates the number of metabolically competent cells. The cells were seeded at 2,500 cells/5 μl in 1536-well plates and were exposed to each test compound at concentrations and treatment duration as previously mentioned. The assay plates were incubated for 24 h at 37 °C, followed by the addition of 4 μl/well of CellTiter-Glo reagent. After 30 min incubation at RT, the luminescence intensity of the plates was measured using a ViewLux plate reader.

HepG2-CYP2B6-hCAR cells = assay: as above; type: cell-based, human; set-up: key to Cytotoxicity (activity call): Inactive: considered inactive if efficacy is less than 30%; details: 24 h
Method: as §1

[4] = system: human primary hepatocytes; assay: MTT cytotoxicity assay in HPH; type: cell-based; details: 1 μM, 24 hours, donor HL-104
Method: Figure S1. […] Human primary
was carried out following the manufacturer’s instruction. Data represent the mean ± SD (n =3).
(1 picture or pasted object on this page, not shown here)

CYP3A4 = CYP3A4 mRNA expression in HPH (real-time PCR); type: cell-based, human; details: for Effect on CYP3A4 mRNA expression: HPH, 24 h, vs vehicle control (0.1% DMSO)
Method: (§6) HPH were isolated from human liver specimens by a modification of the two-step collagenase digestion method as described previously[43] or obtained from Bioreclamation In Vitro Technologies (Baltimore, MD). Fresh HPH were seeded at 1.5 × 10^6, 7.5 × 10^5 or 4.7 × 10^4 cells/well in 6-well, 12-well, or 96-well collagen coated plates, respectively. Hepatocytes were cultured for 36 h at 37 °C before treatment with specified compounds for another 24 or 72 h for detection of mRNA or protein expression in the 6-well and 12-well plates.
(§7) Total RNA was isolated from treated hepatocytes using the TRIzol® reagent and reverse transcribed using a High Capacity cDNA Archive Kit (Applied Biosystems, Foster City, CA) following the manufacturers’ instructions. CYP2B6 and CYP3A4 mRNA expression were normalized against that of GAPDH. Real-time PCR assays were performed in 96-well optical plates on an ABI Prism 7000 Sequence Detection System with SYBR Green PCR Master Mix. […] Induction values were calculated using the equation: Fold = 2ΔΔCt, where ΔCt represents the differences in cycle threshold numbers between CYP2B6 or CYP3A4 and GAPDH, and ΔΔCt represents the relative change in these differences between control and treatment groups.

CYP2B6 = CYP2B6 mRNA expression in HPH (real-time PCR); details: for Effect on CYP2B6 mRNA expression / Induction of hCAR target genes: HPH; for Effect on CYP2B6 mRNA expression: 24 h, vs vehicle control (0.1% DMSO); for Induction of hCAR target genes: target genes CYP2B6 and CYP3A4
Method: as §6, §7

hPXR = biological target: T2, hPXR (Homo sapiens, UniProt O75469); assay: Transient hPXR luciferase assay in HepG2 cells (CYP2B6-2.2 kb reporter); type: cell-based
T2 construct: expressed in transfected cells; host or cells: HepG2 (transient transfection)
T2 sequence (O75469 1-434): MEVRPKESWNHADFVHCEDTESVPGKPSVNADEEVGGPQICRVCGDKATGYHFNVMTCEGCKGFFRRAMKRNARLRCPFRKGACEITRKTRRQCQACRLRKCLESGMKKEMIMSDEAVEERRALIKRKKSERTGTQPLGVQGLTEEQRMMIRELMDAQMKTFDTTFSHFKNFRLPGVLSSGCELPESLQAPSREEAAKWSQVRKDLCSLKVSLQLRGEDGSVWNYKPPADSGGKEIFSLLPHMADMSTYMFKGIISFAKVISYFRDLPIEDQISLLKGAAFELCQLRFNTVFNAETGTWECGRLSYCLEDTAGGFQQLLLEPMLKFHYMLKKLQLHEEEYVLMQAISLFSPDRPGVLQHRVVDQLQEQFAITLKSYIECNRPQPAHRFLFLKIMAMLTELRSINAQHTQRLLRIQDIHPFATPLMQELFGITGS
Method: HepG2 cells cultured in a 24-well plate were co-transfected with the CYP2B6-2.2 kb reporter and hPXR expression vectors using a Lipofectamine® 2000 Transfection Kit (Life Technologies) following the manufacturer’s instruction. […] Cell lysates were assayed for firefly luciferase activities normalized against the activities of co-transfected Renilla luciferase using a Dual-Luciferase Kit (Promega). Data were represented as mean±SD of three individual transfections.

[5] = system: CYP2B6 and CYP3A4 proteins; assay: Immunoblotting of CYP2B6 and CYP3A4 proteins in HPH; type: cell-based, human; details: immunoblotting (Fig. 3C)
Method: Homogenate proteins (30 μg) from treated HPH were resolved on an SDS polyacrylamide gel and electrophoretically transferred onto Immobilon-P polyvinylidene difluoride membranes and blocked using 5% blotting-grade blocker (nonfat dry milk, Bio-RAD). Subsequently, membranes were incubated with specific antibodies against CYP2B6 (1:200), CYP3A4 (1:5000), and β-actin (1:50,000) diluted in 1% blotting-grade blocker. β-Actin was used to normalize protein loadings. Membranes were washed using 1x Tris buffered saline–Tween 20 (Bio-RAD) and incubated with horseradish peroxidase goat anti-rabbit IgG antibody diluted at 1:5000, and developed using ECL Western blotting detection reagent (Thermo-Scientific Inc).

human CAR (hCAR) [6] = biological target: T1, human CAR (hCAR); assay: hCAR luciferase reporter qHTS, agonist mode (HepG2-CYP2B6-hCAR cells, PK11195 co-treatment); details: agonist mode; for Follow-up Confirmation Efficacy: relative to CITCO (100%); for Primary Screen Efficacy: relative to CITCO Emax (100%)
Method: (§8) The generated stable cell line, namely HepG2-CYP2B6-hCAR, was used to identify hCAR modulators in a qHTS platform. Assays were run in both agonist and antagonist modes. In brief, HepG2-CYP2B6-hCAR cells were dispensed at 2,500 cells/well in 1,536-well plates (Greiner Bio-One North America, Monroe, NC) using a Multidrop Combi (Thermo Fisher Scientific Inc., Waltham, MA). […] Each NPC compound was tested at 8 concentrations ranging from 0.6 nM to 38.3 μM. The assays were incubated at 37 °C for 24 h followed by the addition of 4 μl of the ONE-Glo luciferase reagent (Promega, Madision, WI). The assay plates were incubated at room temperature for 20 min and luminescence intensity was quantified using a ViewLux plate reader (PerkinElmer, Shelton, CT).
as §4
(§9) These compounds were prepared in 1536-well compound plates at 11-point 3-fold dilution titrations in DMSO, with final concentrations ranging from 0.6 nM to 38.3 μM. All of these compounds were retested in both HepG2-CYP2B6-hCAR and cell viability assays.

CAR, CYP2B6, or CYP3A4 = details: previously known; reference not given; cited from earlier work
human CAR (hCAR) [7] = biological target: T1, human CAR (hCAR); remark: listed apart in the source
Method: as §8, §4, §9

EYFP-hCAR = biological target: T3, EYFP-hCAR (Homo sapiens, UniProt Q14994); assay: Nuclear translocation of Ad/EYFP-hCAR in human primary hepatocytes; type: cell-based; details: HPH
T3 construct: expressed in transfected cells; host or cells: human primary hepatocytes infected with Ad/EYFP-hCAR
T3 sequence (Q14994 1-348 isoform Q14994-2): T1 sequence (Q14994 1-348 isoform Q14994-2)
Method: A recombinant adenovirus expressing enhanced yellow fluorescent protein-tagged hCAR (Ad/EYFP-hCAR) was generated as described previously. Hepatocytes cultured in 96-well collagen-coated plates in serum free Williams’ E medium were infected with Ad/EFYP-hCAR (1 μl/well) for 12 h before treatment with the vehicle control, DMSO (0.1%), PB (1 mM), and selected compounds for another 8 h. Subcellular localization of hCAR was visualized using a Nikon (Tokyo, Japan) C1-LU3 instrument based on an inverted Nikon Eclipse TE2000 microscope.

[8] = Follow-up Confirmation Potency (IC50), follow-up cherry-pick, 11-point titration
[9] = Primary Screen Potency (IC50), primary qHTS, 0.1 μM CITCO, 24 h
[10] = HPH donor HL-104, 24 h, daunorubicin 1, 2.5 and 5 µM, bortezomib 0.1, 0.5, and 1 µM
[11] = Follow-up Confirmation Potency (EC50), follow-up cherry-pick, 11-point titration
[12] = Primary Screen Potency (EC50), primary qHTS, 2.5 μM PK11195, 24 h

In the case of CCCCc1ccc(O)cc1 [4-butylphenol], the “Identified as hCAR antagonist/deactivator in the qHTS” value (human CAR (hCAR) [1]) is reported as “recognized in the current study”.

In the case of CC(C)C[C@H](NC(=O)[C@H](Cc1ccccc1)NC(=O)c1cnccn1)B(O)O [Bortezomib], the IC50 (human CAR (hCAR) [2]; [8]) is reported as 0.03 µM, the IC50 (human CAR (hCAR) [2]; [9]) is reported as 0.02 µM and the “Primary Screen Efficacy” value (human CAR (hCAR) [2]; primary qHTS, relative to PK11195 (100%)) is reported as -103%. For the same compound, the IC50 at 24 h [3] was 1.25 µM, the “Cytotoxicity Efficacy” value (HepG2-CYP2B6-hCAR cells) was -57% and the “Cytotoxicity in HPH (MTT)” value [4] was “not associated with significant cytotoxicity”. For the same compound, the “Concentration-dependent effect on CYP3A4 mRNA expression” value (CYP3A4; [10]) was “marked and concentration-dependent repression”, the “Concentration-dependent effect on CYP2B6 mRNA expression” value (CYP2B6; [10]) was “marked and concentration-dependent repression” and the “Effect on CYP2B6 mRNA expression” value (CYP2B6) was “most potent repressors of CYP2B6”.

For COc1cccc2c1C(=O)c1c(O)c3c(c(O)c1C2=O)C[C@@](O)(C(C)=O)C[C@@H]3O[C@H]1C[C@H](N)[C@H](O)[C@H](C)O1 [Daunorubicin], the “Effect on basal and RIF-induced PXR activity” value (hPXR; HepG2, 24 h, in the presence or absence of rifampicin (10 μM)) was “only repressed RIF-induced PXR activity”, the IC50 at 24 h [3] was 15.9 µM and the “Cytotoxicity Efficacy” value (HepG2-CYP2B6-hCAR cells) was -43%. For the same compound, the “Effect on CYP2B6 mRNA expression” value (CYP2B6) was “most potent repressors of CYP2B6”.

For O=c1cc(-c2ccccc2)oc2ccccc12 [Flavone], the “Induction of CYP2B6 and CYP3A4 at the protein level” value [5] was “preferential induction of CYP2B6 over CYP3A4”, the hPXR activation (hPXR; data not shown) was “moderately activated hPXR” and the EC50 (human CAR (hCAR) [6]; [11]) was 32.4 µM. The EC50 (human CAR (hCAR) [6]; [12]) was 34 µM, the “Follow-up Confirmation Efficacy” value (human CAR (hCAR) [6]; follow-up cherry-pick) was 200% and the “Primary Screen Efficacy” value (human CAR (hCAR) [6]; primary qHTS) was 184%. For the same compound, the “Effect on CYP3A4 mRNA expression” value (CYP3A4) was “marginal effect; also recorded: only marginally increased”, the “Known modulator of CAR, CYP2B6, or CYP3A4?” value (“Known modulator of CAR” for short) (CAR, CYP2B6, or CYP3A4) was “Dietary flavonoids activate CAR” and the “Effect on CYP2B6 mRNA expression” value (CYP2B6) was “significantly induced; also recorded: markedly induced”.

In the case of CC(C)=CCOc1c2occc2cc2ccc(=O)oc12 [Imperatorin], the “Induction of CYP2B6 and CYP3A4 at the protein level” value [5] is reported as “preferential induction of CYP2B6 over CYP3A4”, the hPXR activation (hPXR) is reported as “moderately activated hPXR” and the EC50 (human CAR (hCAR) [6]; [11]) is reported as 14 µM. The EC50 (human CAR (hCAR) [6]; [12]) was 10.7 µM, the “Follow-up Confirmation Efficacy” value (human CAR (hCAR) [7]) was 238% and the “Primary Screen Efficacy” value (human CAR (hCAR) [7]) was 146%. For the same compound, the “Effect on CYP3A4 mRNA expression” value (CYP3A4) was “marginal effect; also recorded: only marginally increased” and the “Known modulator of CAR” value (CAR, CYP2B6, or CYP3A4) was “Cyp2b10 inducer”.

In the case of C[C@@H]1O[C@@H](O[C@H]2C[C@@H](O)[C@]3(CO)[C@H]4[C@H](O)C[C@]5(C)[C@@H](C6=CC(=O)OC6)CC[C@]5(O)[C@@H]4CC[C@]3(O)C2)[C@H](O)[C@H](O)[C@H]1O [Ouabain], the “Follow-up Confirmation Efficacy” value (human CAR (hCAR) [1]) is reported as 0.47 (-99%), the “Primary Screen Efficacy” value (human CAR (hCAR) [1]) is reported as 0.30 (-104%) and the IC50 (human CAR (hCAR) [2]; [8]) is reported as 0.47 µM. For the same compound, the IC50 (human CAR (hCAR) [2]; [9]) was 0.3 µM and the “Cytotoxicity (activity call)” value (HepG2-CYP2B6-hCAR cells) was “Inactive”.

In the case of NNCCc1ccccc1 [Phenelzine], the EC50 (human CAR (hCAR) [6]; [11]) is reported as 15.9 µM, the EC50 (human CAR (hCAR) [6]; [12]) is reported as 15.1 µM and the “Follow-up Confirmation Efficacy” value (human CAR (hCAR) [6]; follow-up cherry-pick) is reported as 70%. For the same compound, the “Primary Screen Efficacy” value (human CAR (hCAR) [6]; primary qHTS) was 145%, the “hCAR nuclear translocation (in words)” value (EYFP-hCAR) was “didn’t translocate hCAR” and the “hCAR nuclear translocation (in words)” value (EYFP-hCAR; listed as phenelzine) was “neither translocated hCAR”. The “Known modulator of CAR” value (CAR, CYP2B6, or CYP3A4) was “CYP3A4 weak inhibitor”, the “Induction of hCAR target genes” value (CYP2B6) was “negligible induction” and the “Induction of hCAR target genes” value (CYP2B6; listed as phenelzine) was “nor induced the expression of its target genes”.
